“Also recorded” adds a separate entry of the source.
Columns and labels:
[1] = Heat stability test (UV-absorption left after storage at 50° C.); type: physicochemical; conditions: for Heat stability: UV-absorption left after 5 days: 5 days at 50° C. in the dark; for Heat stability: UV-absorption left after 5 days / Heat stability: UV-absorption left after 50 days / Heat stability: UV-absorption left after 100 days: 1.5% in C12-C15 alkyl benzoate oil (compound 12: 5% in water), 375 nm versus sample stored at room temperature; for Heat stability: UV-absorption left after 50 days: 50 days at 50° C. in the dark; for Heat stability: UV-absorption left after 100 days: 100 days at 50° C. in the dark; for heat stability, in words: in C12-C15 alkylbenzoate oils
Experimental: Hereto, 1.5% solutions were prepared of compounds 4-11 and 13 in C12-C15 alkyl benzoate oil. […] The solutions were stored in closed vessels at 50° C. in the dark. After 5, 50 and 100 days, the UV-absorption of a diluted sample was measured at 375 nm comparative to a corresponding sample stored at room temperature. The UV-absorption left after each time span is shown in Table 4 indicated by + and − signs. ++ means >95% left, +− implies between 50-95% left, − indicates <50% left.

human skin = test: Skin penetration test in diffusion cell; type: in vitro ADME; conditions: for penetration into or through the skin (UV analysis of DMSO skin extracts), in words / penetration through the skin (UV-analysis of collected receptor fluids), in words: human skin, diffusion cell; for penetration through the skin (UV-analysis of collected receptor fluids), in words: 20 hrs
Experimental: The skin-penetration was evaluated based on the same method described on page 21 of WO2006/009451. FIG. 2 is a drawing of the skin penetration test equipment, wherein (1) indicates the position of the test sample (donor compound), (2) an ⅛″ OD× 1/32″ wall tubing, (3) the receptor input, (4) the receptor compartment and (5) the compound and receptor output that is subjected to analysis.
A compound 3 donor solution was prepared by dissolving 30 mg of compound 3 in 4 ml EtOH and 7 ml phosphate buffer (PBS) at pH 7.4. Compound 4, 6, 7, 8 and 9 donor solutions were prepared by dispersing 80 mg of these compounds in olive oil.
For each compound 4 pieces of human skin (Ø ca 3 cm, mostly epidermis) were applied on a dialysis membrane and mounted into the diffusion cell shown in the FIG. 2. The figure is a schematic drawing of the diffusion cell, wherein is indicated 1: donor compound, 2: receptor compartment, 3: receptor input, 4: compound and receptor output for analysis, 5: ⅛″ OD× 1/32″ wall tubing. The cells were mounted on a temperature controlling and stirring device. The temperature was kept at 37°. The receptor fluid was a PBS buffer. The receptor compartment was stirred magnetically. 400 μl of the donor solution was applied. The receptor fluid flowing at a speed of 1 ml/hr was collected into glass tubes (1 tube/2 hrs). After 20 hrs the penetration experiment was terminated.
Furthermore the skin parts were extracted with DMSO to dissolve any UV-absorber in the epidermis. The extracts were analysed by UV.

[2] = Solubility test in C12-C15 alkyl benzoate oil (Finsolv TN); type: physicochemical; parameters: key to Solubility in Finsolv TN, dissolved amount (m/m %) 1% / Solubility in Finsolv TN, dissolved amount (m/m %) 5% / Solubility in Finsolv TN, dissolved amount (m/m %) 20% / Solubility in Finsolv TN, dissolved amount (m/m %) 50% / Solubility in Finsolv TN, dissolved amount (m/m %) 80% / Solubility in Finsolv TN, dissolved amount (m/m %) 90%: +=well-soluble; −=not soluble; conditions: dissolved at 80° C. for 1 hour, cooled to room temperature, inspected after 24 hours; for Solubility in Finsolv TN, dissolved amount (m/m %) 1%: 1% m/m; for Solubility in Finsolv TN, dissolved amount (m/m %) 5%: 5% m/m; for Solubility in Finsolv TN, dissolved amount (m/m %) 20%: 20% m/m; for Solubility in Finsolv TN, dissolved amount (m/m %) 50%: 50% m/m; for Solubility in Finsolv TN, dissolved amount (m/m %) 80%: 80% m/m; for Solubility in Finsolv TN, dissolved amount (m/m %) 90%: 90% m/m
Experimental: The aminobutadiene compounds according to the present invention have an optimised solubility for cosmetic oils. […] In Table 3, the solubility of compounds 4, 12 and 13 is shown at various concentrations (+=well-soluble; -=not soluble). The compounds were dissolved at 80° C. while stirring for 1 hour and cooled down to room temperature. After 24 hours the solutions were inspected for any precipitates or crystals.

SMILES | Heat stability: UV-absorption left after 5 days [1] | Heat stability: UV-absorption left after 50 days [1] | Heat stability: UV-absorption left after 100 days [1] | heat stability, in words [1] | penetration into or through the skin (UV analysis of DMSO skin extracts), in words (human skin) | penetration through the skin (UV-analysis of collected receptor fluids), in words (human skin) | Solubility in Finsolv TN, dissolved amount (m/m %) 1% [2] | Solubility in Finsolv TN, dissolved amount (m/m %) 5% [2] | Solubility in Finsolv TN, dissolved amount (m/m %) 20% [2] | Solubility in Finsolv TN, dissolved amount (m/m %) 50% [2] | Solubility in Finsolv TN, dissolved amount (m/m %) 80% [2] | Solubility in Finsolv TN, dissolved amount (m/m %) 90% [2] | Presence in receptor fluid after 6 h (human skin; human skin (mostly epidermis), 37°, PBS receptor fluid, compound 3 donor in EtOH/PBS pH 7.4, others dispersed in olive oil, UV-analysis) | Presence in skin extract (human skin; skin parts extracted with DMSO after the penetration experiment, UV analysis)
CCCCCCCCOC(=O)/C(=C/C=C/NCCCCCCN(/C=C\C=C(/C(=O)OCCCCCCCC)S(=O)(=O)c1ccccc1)CCCCCCN/C=C/C=C(\C(=O)OCCCCCCCC)S(=O)(=O)c1ccccc1)S(=O)(=O)c1ccccc1 [Compound 5, reference compound] | ++ (++ means >95% left) | +− (+− implies between 50-95% left) | +− (+− implies between 50-95% left) |  |  |  |  |  |  |  |  |  |  | 
CCCCCCCCOC(=O)C(=CC=CN(CCCC)CCCCCCN(C=CC=C(C(=O)OCCCCCCCC)S(=O)(=O)c1ccccc1)CCCCCCN(C=CC=C(C(=O)OCCCCCCCC)S(=O)(=O)c1ccccc1)CCCC)S(=O)(=O)c1ccccc1 [Compound 6] | ++ (++ means >95% left) | ++ (++ means >95% left) | ++ (++ means >95% left) | very heat stable | do not penetrate into or through the skin | no penetration |  |  |  |  |  |  |  | 
CCCCCCCCOC(=O)C(=CC=CN(CCN(CCN(C=CC=C(C(=O)OCCCCCCCC)S(=O)(=O)c1ccccc1)Cc1ccccc1)CCN(C=CC=C(C(=O)OCCCCCCCC)S(=O)(=O)c1ccccc1)Cc1ccccc1)Cc1ccccc1)S(=O)(=O)c1ccccc1 [Compound 7] | ++ (++ means >95% left) | ++ (++ means >95% left) | ++ (++ means >95% left) | very heat stable | do not penetrate into or through the skin | no penetration |  |  |  |  |  |  |  | 
CCCCCCCCOC(=O)C(=CC=CN(CCCN(CCCCN(CCCN(C=CC=C(C(=O)OCCCCCCCC)S(=O)(=O)c1ccccc1)Cc1ccccc1)CCCN(C=CC=C(C(=O)OCCCCCCCC)S(=O)(=O)c1ccccc1)Cc1ccccc1)CCCN(C=CC=C(C(=O)OCCCCCCCC)S(=O)(=O)c1ccccc1)Cc1ccccc1)Cc1ccccc1)S(=O)(=O)c1ccccc1 [Compound 8] | ++ (++ means >95% left) | ++ (++ means >95% left) | ++ (++ means >95% left) | very heat stable | do not penetrate into or through the skin | no penetration |  |  |  |  |  |  |  | 
CCCCCCCCOC(=O)C(=CC=CNCCN(CCNC=CC=C(C(=O)OCCCCCCCC)S(=O)(=O)c1ccccc1)CCNC=CC=C(C(=O)OCCCCCCCC)S(=O)(=O)c1ccccc1)S(=O)(=O)c1ccccc1 [Compound 10, reference compound] | ++ (++ means >95% left) | +− (+− implies between 50-95% left) | − (− indicates <50% left) |  |  |  |  |  |  |  |  |  |  | 
CCCCCCCCOC(=O)C(=CC=CNCCCN(CCCCN(CCCNC=CC=C(C(=O)OCCCCCCCC)S(=O)(=O)c1ccccc1)CCCNC=CC=C(C(=O)OCCCCCCCC)S(=O)(=O)c1ccccc1)CCCNC=CC=C(C(=O)OCCCCCCCC)S(=O)(=O)c1ccccc1)S(=O)(=O)c1ccccc1 [Compound 11, reference compound] | ++ (++ means >95% left) | +− (+− implies between 50-95% left) | − (− indicates <50% left) |  |  |  |  |  |  |  |  |  |  | 
CCCCCCCCOC(=O)C(=CC=CN(CCCC)CCN(C=CC=C(C(=O)OCCCCCCCC)S(=O)(=O)c1ccccc1)CCN(C=CC=C(C(=O)OCCCCCCCC)S(=O)(=O)c1ccccc1)CCCC)S(=O)(=O)c1ccccc1 [Compound 13] | ++ (++ means >95% left) | ++ (++ means >95% left) | ++ (++ means >95% left) | very heat stable; also recorded: good heat stability |  |  | + | + | + | − | − | − |  | 
CC(C)OC(=O)C(=CC=CN(CCCCCCN(C=CC=C(C(=O)OC(C)C)S(=O)(=O)c1ccccc1)Cc1ccccc1)CCCCCCN(C=CC=C(C(=O)OC(C)C)S(=O)(=O)c1ccccc1)Cc1ccccc1)S(=O)(=O)c1ccccc1 [Compound 17] | ++ (++ means >95% left) | ++ (++ means >95% left) | ++ (++ means >95% left) |  |  |  | − | − | − | − | − | − |  | 
CCCCC(CC)COC(=O)C(=CC=CN(CCCCCCN(C=CC=C(C(=O)OCC(CC)CCCC)S(=O)(=O)c1ccccc1)Cc1ccccc1)CCCCCCN(C=CC=C(C(=O)OCC(CC)CCCC)S(=O)(=O)c1ccccc1)Cc1ccccc1)S(=O)(=O)c1ccccc1 (centres unmarked) [Compound 18] | ++ (++ means >95% left) | ++ (++ means >95% left) | ++ (++ means >95% left) |  |  |  | + | − | − | − | − | − |  | 
CCCCCCCCCCCCCCCCCCOC(=O)C(=CC=CN(CCCCCCN(C=CC=C(C(=O)OCCCCCCCCCCCCCCCCCC)S(=O)(=O)c1ccccc1)Cc1ccccc1)CCCCCCN(C=CC=C(C(=O)OCCCCCCCCCCCCCCCCCC)S(=O)(=O)c1ccccc1)Cc1ccccc1)S(=O)(=O)c1ccccc1 [Compound 19] | ++ (++ means >95% left) | ++ (++ means >95% left) | ++ (++ means >95% left) |  |  |  | + | + | + | + | + | + |  | 
CCCCCCCCOC(=O)C(=CC=CN(C(C)=O)c1ccccc1)S(=O)(=O)c1ccccc1 [aminobutadiene 3, reference compound] |  |  |  |  | observed inside the skin sample | penetration |  |  |  |  |  |  | + (a ‘+’ means that more than 50% of the substance penetrates the skin) | + (a ‘+’ means that more than 50% of the substance penetrates the skin)

From patent US8318980B2, “UV absorbing compounds” (Fujifilm Manufacturing Europe B.V., priority 2007, dated 2012)
